Assay results taken from the supplement of paper PMC8882468.
± gives the standard deviation of the averaged measurements.

Experiments:
Experiment in all cases: CTG-3D luminescence at 96 h relative to day-0 seeding control (ratio to day 0); higher = more growth / less cytotoxicity; PDxO 3D drug screen, 96 h, CTG-3D normalised to day-0 seeding control.
HCI-025 = tested on: HCI-025 (organoid from a breast cancer xenograft)
HCI-027 = tested on: HCI-027 (organoid from a triple-negative breast cancer xenograft)
HCI-003.E2 = tested on: HCI-003.E2 (organoid from an ER-positive breast cancer xenograft)
HCI-016 = tested on: HCI-016 (organoid from a triple-negative breast cancer xenograft)
HCI-024 = tested on: HCI-024 (organoid from a breast cancer xenograft)

O=C(O)C1(C(=O)O)CCC1.[NH2-].[NH2-].[Pt+2] [carboplatin]
CTG-3D luminescence at 96 h
Conditions	12.5 pM	0.00025 µM	0.005 µM	0.1 µM	1 µM	10 µM	100 µM	625 fM
HCI-016, days in culture: 153	3.27	2.03	2.66	2.2	2.81	0.866	0.0935	2.64
HCI-016, days in culture: 172	2.27	2.25	1.89	1.3	1.71	0.761	0.139	1.78
HCI-016, days in culture: 190	1.49	1.29	1.53	1.17	1.46	0.642	0.12	1.18
HCI-016, days in culture: 199	1.55	1.29	1.34	1.29	1.64	0.782	0.081	1.86
HCI-024, days in culture: 105	1.38	1.54	1.37	1.52	1.36	1.64	0.14	1.71
HCI-024, days in culture: 122	1.94	1.95	1.97	1.65	1.8	2.27	0.189	2.78
HCI-024, days in culture: 163	2.01	2.27	2.06	2.67	2.1	2.03	0.608	2.43
HCI-025, days in culture: 172	2.56	1.71	3.2	1.24	2.75	1.11	0.15	1.35
HCI-025, days in culture: 209	1.97	1.73	1.67	1.49	1.79	0.85	0.119	1.86
HCI-025, days in culture: 218	1.73	1.73	1.72	2.01	1.43	1.14	0.203	1.73
HCI-027, days in culture: 176	1.57	1.38	2.11	1.68	2.42	1.35	0.0917	1.72
HCI-027, days in culture: 194	1.43	1.55	1.4	1.9	2.15	1.91	0.181	1.44
HCI-027, days in culture: 201	2.1	1.98	2.09	2.08	2.19	1.53	0.145	1.71

HCI-003.E2
Conditions	CTG-3D luminescence at 96 h
12.5 pM	2.12 ± 0.57
0.00025 µM	2.49 ± 0.68
0.005 µM	2.22 ± 0.38
0.1 µM	2.23 ± 0.48
1 µM	2.32 ± 0.66
10 µM	2.35 ± 0.96
100 µM	1.65 ± 0.56
625 fM	2.11 ± 0.35

C[C@H](NC(=O)CCC(F)(F)F)C(=O)N[C@@H]1C(=O)N(CCO)c2ncccc2-c2ccccc21 [crenigacestat]
CTG-3D luminescence at 96 h
Conditions	12.5 pM	0.00025 µM	0.005 µM	0.1 µM	1 µM	10 µM	100 µM	625 fM
HCI-016, days in culture: 153	2.83	1.83	2.67	1.66	2.21	2.33	2.19	2.92
HCI-016, days in culture: 172	2.16	1.87	1.71	1.66	1.58	1.14	1.76	1.73
HCI-016, days in culture: 190	1.45	1.02	1.29	0.549	0.838	1.52	1.74	0.976
HCI-016, days in culture: 199	1.48	1.3	1.49	1.38	1.78	1.57	1.73	1.76
HCI-024, days in culture: 105	1.19	1.65	1.35	1.59	2.01	1.98	1.62	1.56
HCI-024, days in culture: 122	1.95	1.76	1.92	1.72	1.97	2.75	2	2.55
HCI-024, days in culture: 163	1.93	2.2	2.01	2.48	2.19	2.38	1.88	1.86
HCI-025, days in culture: 172	2.73	1.6	2.79	2.23	3.2	1.64	1.98	2.44
HCI-025, days in culture: 209	2.02	2.25	2.26	1.61	1.76	1.57	1.45	1.58
HCI-025, days in culture: 218	1.89	2.02	1.67	1.69	1.75	2.32	1.58	2.02
HCI-027, days in culture: 176	1.81	1.25	0.916	0.198	0.179	0.173	0.335	1.6
HCI-027, days in culture: 194	1.84	1.19	0.958	0.251	0.276	0.312	0.344	1.57
HCI-027, days in culture: 201	2.13	1.77	1.26	0.249	0.206	0.258	0.259	1.97

HCI-003.E2
Conditions	CTG-3D luminescence at 96 h
12.5 pM	2.2 ± 0.74
0.00025 µM	2.4 ± 0.87
0.005 µM	2.11 ± 0.45
0.1 µM	2.4 ± 0.31
1 µM	2.16 ± 0.72
10 µM	2.09 ± 0.67
100 µM	1.64 ± 0.37
625 fM	2.07 ± 0.53

CC(=O)O[C@H]1C(=O)[C@@]2(C)[C@H]([C@H](OC(=O)c3ccccc3)[C@]3(O)C[C@H](OC(=O)[C@H](O)[C@@H](NC(=O)c4ccccc4)c4ccccc4)C(C)=C1C3(C)C)[C@]1(OC(C)=O)CO[C@@H]1C[C@@H]2O [paclitaxel]
CTG-3D luminescence at 96 h
Conditions	12.5 pM	0.00025 µM	0.005 µM	0.1 µM	1 µM	10 µM	100 µM	625 fM
HCI-016, days in culture: 153	1.14	0.515	0.631	0.561	0.976	1.08	0.796	0.781
HCI-016, days in culture: 172	2.25	1.87	1.29	0.627	0.505	0.659	0.505	1.5
HCI-016, days in culture: 190	1.89	1.42	0.919	0.359	0.861	0.704	0.661	1.05
HCI-016, days in culture: 199	1.64	1.67	0.633	0.431	0.495	0.834	0.484	1.66
HCI-024, days in culture: 105	1.8	1.38	1.01	1.4	1.57	1.68	1.11	1.85
HCI-024, days in culture: 122	2.07	2.67	1.5	1.34	1.62	2.3	1.13	2.79
HCI-024, days in culture: 163	1.62	1.72	1.29	1.68	1.65	2.37	1.26	1.56
HCI-025, days in culture: 172	1.17	0.343	0.553	0.314	0.362	0.295	0.584	0.698
HCI-025, days in culture: 209	2.09	2.2	1.75	0.281	0.353	0.301	0.767	2
HCI-025, days in culture: 218	1.85	2.18	1.43	0.199	0.168	0.213	0.507	1.92
HCI-027, days in culture: 176	2.38	1.31	0.504	0.265	0.283	0.392	0.34	2.59
HCI-027, days in culture: 194	1.95	1.6	0.751	0.185	0.242	0.511	0.427	1.65
HCI-027, days in culture: 201	2.25	2.16	0.808	0.215	0.284	0.563	0.342	2.03

HCI-003.E2
Conditions	CTG-3D luminescence at 96 h
12.5 pM	0.723 ± 0.26
0.00025 µM	0.764 ± 0.34
0.005 µM	0.601 ± 0.18
0.1 µM	0.625 ± 0.068
1 µM	0.634 ± 0.16
10 µM	0.787 ± 0.4
100 µM	0.992 ± 0.28
625 fM	0.813 ± 0.22

CCc1c2c(nc3ccc(O)cc13)-c1cc3c(c(=O)n1C2)COC(=O)[C@]3(O)CC [SN-38]
CTG-3D luminescence at 96 h
Conditions	12.5 pM	0.00025 µM	0.005 µM	0.1 µM	1 µM	10 µM	100 µM	625 fM
HCI-016, days in culture: 153	2.8	1.73	1.68	0.253	0.0495	0.0432	0.0259	2.02
HCI-016, days in culture: 172	2.16	2.11	1.21	0.157	0.0512	0.021	0.019	1.22
HCI-016, days in culture: 190	1.83	1.12	1.17	0.151	0.0473	0.0272	0.0195	1.25
HCI-016, days in culture: 199	1.87	1.62	1.36	0.126	0.0472	0.0229	0.0167	1.92
HCI-024, days in culture: 105	1.67	1.42	1.1	0.734	0.264	0.153	0.114	1.9
HCI-024, days in culture: 122	2.16	2.39	1.58	0.768	0.272	0.192	0.13	2.86
HCI-024, days in culture: 163	1.84	1.76	1.18	0.824	0.262	0.185	0.173	2.01
HCI-025, days in culture: 172	3.42	1.7	2.12	0.486	0.295	0.0768	0.0418	2.35
HCI-025, days in culture: 209	1.97	2.36	1.12	0.295	0.181	0.0722	0.0384	1.53
HCI-025, days in culture: 218	1.5	1.73	0.75	0.244	0.0898	0.0616	0.0407	1.53
HCI-027, days in culture: 176	1.94	1.79	1.19	0.371	0.104	0.0345	0.0407	1.74
HCI-027, days in culture: 194	1.81	1.39	0.614	0.307	0.0805	0.0428	0.0357	1.66
HCI-027, days in culture: 201	2.6	2.5	0.717	0.272	0.0912	0.0373	0.029	2.46

HCI-003.E2
Conditions	CTG-3D luminescence at 96 h
12.5 pM	2.07 ± 0.86
0.00025 µM	2.06 ± 0.55
0.005 µM	1.68 ± 0.41
0.1 µM	1.64 ± 0.19
1 µM	1.24 ± 0.17
10 µM	0.339 ± 0.13
100 µM	0.213 ± 0.061
625 fM	1.94 ± 0.31

CC1(C)CCC(c2ccc(Cl)cc2)=C(CN2CCN(c3ccc(C(=O)NS(=O)(=O)c4ccc(N[C@H](CCN5CCOCC5)CSc5ccccc5)c(S(=O)(=O)C(F)(F)F)c4)cc3)CC2)C1 [navitoclax]
CTG-3D luminescence at 96 h
Conditions	12.5 pM	0.00025 µM	0.005 µM	0.1 µM	1 µM	10 µM	100 µM	625 fM
HCI-016, days in culture: 153	3.08	1.54	2.11	1.77	1.76	0.105	0.000169	3.01
HCI-016, days in culture: 172	2.29	2.07	1.85	1.43	1.55	0.931	0.00877	1.68
HCI-016, days in culture: 190	2.07	1.62	1.9	1.65	1.46	1.1	0.0887	1.24
HCI-016, days in culture: 199	2.03	2.16	2.22	1.82	2.1	0.827	0.0061	1.99
HCI-024, days in culture: 105	1.44	1.51	1.24	1.47	1.01	1.1	0.182	1.59
HCI-024, days in culture: 122	1.5	2.32	1.85	1.88	1.6	1.52	0.266	2.7
HCI-024, days in culture: 163	1.88	2.19	1.74	2.8	1.99	1.74	0.357	2.54
HCI-025, days in culture: 172	3.28	1.84	2.93	0.781	0.555	-0.249	-0.109	2.63
HCI-025, days in culture: 209	1.95	2.53	2.24	1.27	1.81	0.666	0.00258	2.29
HCI-025, days in culture: 218	1.36	1.87	1.59	1.15	0.81	0.293	0.0152	1.91
HCI-027, days in culture: 176	2.47	2.17	3.4	1.89	2.39	1.32	-0.194	3.28
HCI-027, days in culture: 194	2.18	1.78	2.01	2.17	2.24	1.75	0.198	2.27
HCI-027, days in culture: 201	3.21	2.62	3.27	3.18	2.73	1.5	0.0321	2.76

HCI-003.E2
Conditions	CTG-3D luminescence at 96 h
12.5 pM	1.98 ± 0.72
0.00025 µM	2.09 ± 0.83
0.005 µM	1.64 ± 0.31
0.1 µM	2.22 ± 0.47
1 µM	1.78 ± 0.67
10 µM	1.12 ± 0.62
100 µM	0.0236 ± 0.0095
625 fM	1.76 ± 0.35
